# Several values for one entry are separate records, joined by “and”; a condition that tells them apart may be missing. Equal entries are not always repeated.
# Molecular target: T1, SBC2 (Homo sapiens, UniProt O14508)
# T1 construct: SOCS2 (amino acids 32–198); His6 (N, cleaved yes); made in house; host or cells: E. coli BL21(DE3)
# Test: Covalent fluorescence polarization (FP) probe displacement assay
# Assay type: binding
# Settings: for Anisotropy based on Raw Data (485): Cycle 7 (30 min)
# Description: With the specific covalent modification of Cys111 established, we decided to fully characterize MN551 as a covalent SOCS2 inhibitor. […] (Fig. 2g, h, Supplementary Fig. 9). Due to the covalent nature of the competing inhibitor, a time-dependent reduction in the fraction of protein-bound probe is observed. […] This value illustrates reasonable specificity for a covalent inhibitor, with nonetheless scope for future optimization. In addition to characterizing the kinetic covalency parameters, we have also assessed the stability of the MN551 by monitoring its reactivity (half-life >70 min) with reduced glutathione (GSH) (Supplementary Fig. 10)[35].
# To monitor the SBC2-ligand binding kinetics we designed a fluorescein-labeled small-molecule probe - compound 26. The fluorescence polarization (anisotropy) of a threefold serial dilution of 50 µM SBC2 in 10 nM of the probe in 100 mM HEPES pH 7.5, 50 mM NaCl, 0.5 mM TCEP, 2% DMSO was measured to determine the KL (Supplementary Fig. 9A) (BMG Labtech PHERAstar – firmware v1.33). Protein titration and the curves were fitted using GraphPad Prism 9, using one-site fitting models to determine the probe binding constant, KL. Samples were run in triplicate in 384 well plates, using a total volume per well of 16 μL. The bound fraction of the probe is measure using the equation:1 Fb=Af−A/Af−Ab Where,
# A time-dependent reduction in probe anisotropy were measured for a 2-fold serial dilution of […] compound MN551 in 10 nM probe +300 μM SBC2. To determine the initial reversible binding affinity, the initial bound fraction of the probe at time = 0, Fbo (the y-intercept in Fb v/s Time plot, Supplementary Fig. 9B) was plotted against MN551 concentration, and the obtained IC50 is then converted to Ki (Supplementary Fig. 9C)[17]. The slope from Fb versus time graph when divided by Fbo gives rate of covalency, kobs. A plot of kobs v/s MN551 concentration using Michaelis–Menten model of GraphPad Prism 9, provides the parameters kinact (maximum potential rate of inactivation) and KI (concentration of MN551 at which kobs = kinact/2) (Supplementary Fig. 9D, E).
# The observed first-order rate constant, kobs is related to KI and kinact by the equation:2 kobs=kinactI/KI+I
# At [I]«[KI] the above equation is converted to3 […]
# The slope from the plot of kobs against concentration of MN551 gives us the covalent efficiency parameter kinact/KI (Supp Fig. 9F)[30],[33].
# [1] = MN551 48.4003 nM, Cycle 12 (55 min)
# [2] = MN551 67.7604 nM, Cycle 12 (55 min)
# [3] = MN551 94.8645 nM, Cycle 12 (55 min)
# [4] = MN551 132.81 nM, Cycle 6 (25 min)
# [5] = MN551 132.81 nM, Cycle 12 (55 min)
# [6] = MN551 185.934 nM, Cycle 6 (25 min)
# [7] = MN551 185.934 nM, Cycle 12 (55 min)
# T1 sequence (O14508 32-198): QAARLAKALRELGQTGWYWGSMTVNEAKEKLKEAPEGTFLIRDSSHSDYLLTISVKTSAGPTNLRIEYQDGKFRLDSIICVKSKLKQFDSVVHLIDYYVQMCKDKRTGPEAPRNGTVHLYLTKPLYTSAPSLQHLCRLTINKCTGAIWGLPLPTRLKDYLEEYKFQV
# T1 sequence (Q15370 1-104 partner limits assumed): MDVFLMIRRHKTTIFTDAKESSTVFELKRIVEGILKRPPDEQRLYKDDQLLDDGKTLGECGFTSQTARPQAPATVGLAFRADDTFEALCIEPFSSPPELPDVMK
# T1 sequence (Q15369 17-112 partner limits assumed): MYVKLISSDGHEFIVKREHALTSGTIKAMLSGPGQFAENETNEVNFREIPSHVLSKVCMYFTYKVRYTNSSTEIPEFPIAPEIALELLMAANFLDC
smiles,measurement,setting,value
O=C(CCl)Nc1cccc(CNC(=O)[C@H](Cc2ccc(OP(=O)(O)O)cc2)NC(=O)Cc2ccc(F)cc2)c1 [MN551],"Fb, fraction bound","MN551 48.4003 nM, Cycle 2 (5 min)",1.049 and 0.9991 and 1.04
same,Anisotropy,[1],281.3 and 275.7 and 274.4
same,Fb,[1],1.033 and 1.011 and 0.9942
same,"Anisotropy normalised (0 nM MN551 = 1, free probe = 0)","MN551 48.4003 nM, Cycle 19 (90 min), n=1",1.03 and 1.015 (2×)
same,"Anisotropy normalised (0 nM MN551 = 1, free probe = 0)","MN551 48.4003 nM, Cycle 20 (95 min), n=1",1.011 and 0.999 and 0.9749
same,Anisotropy based on Raw Data (485),MN551 48.8281 nM,280.9 and 281.7 and 280.6
same,"Fb, fraction bound","MN551 48.8281 nM, Cycle 2 (5 min)",1.013 and 1.049 and 1.036
same,Anisotropy,"MN551 48.8281 nM, Cycle 11 (50 min)",280 and 280.2 and 277
same,Anisotropy,"MN551 48.8281 nM, Cycle 12 (55 min)",279.7 and 280.1 and 278.6
same,"Anisotropy data 485,520,520","MN551 48.8281 nM, Cycle 18 (85 min), n=1",276.3 and 276.1 and 275.6
same,Anisotropy based on Raw Data (485),MN551 67.7604 nM,278.6 and 278.4 and 280
same,"Normalised anisotropy (0 nM MN551 = 1, free probe = 0)","MN551 67.7604 nM, Cycle 13 (60 min), n=1",1.005 and 0.9558 and 1.011
same,"Normalised anisotropy (0 nM MN551 = 1, free probe = 0)","MN551 67.7604 nM, Cycle 14 (65 min), n=1",1.03 and 1.001 and 1.016
same,"Fb, fraction bound","MN551 67.7604 nM, Cycle 2 (5 min)",1.032 and 1.001 and 1.045
same,"Fb, fraction bound","MN551 67.7604 nM, Cycle 3 (10 min)",1.036
same,Anisotropy,[2],277.4 and 276.4 and 273
same,Fb,[2],0.9963 and 1.017 and 0.9808
same,"Anisotropy normalised (0 nM MN551 = 1, free probe = 0)","MN551 67.7604 nM, Cycle 19 (90 min), n=1",1.021 and 1.031 and 0.9864
same,"Anisotropy normalised (0 nM MN551 = 1, free probe = 0)","MN551 67.7604 nM, Cycle 20 (95 min), n=1",0.999 and 0.9767 and 0.9903
same,Anisotropy based on Raw Data (485),MN551 94.8645 nM,276.5 and 276.4 and 275
same,"Normalised anisotropy (0 nM MN551 = 1, free probe = 0)","MN551 94.8645 nM, Cycle 13 (60 min), n=1",0.9841 and 0.9576 and 0.9759
same,"Normalised anisotropy (0 nM MN551 = 1, free probe = 0)","MN551 94.8645 nM, Cycle 14 (65 min), n=1",1.002 and 0.9934 and 0.9731
same,"Normalised anisotropy (0 nM MN551 = 1, free probe = 0)","MN551 94.8645 nM, Cycle 15 (70 min), n=1",1.0078
same,"Fb, fraction bound","MN551 94.8645 nM, Cycle 2 (5 min)",1.026 and 1.011 and 0.9914
same,"Fb, fraction bound","MN551 94.8645 nM, Cycle 3 (10 min)",1.0139 and 1.041 and 0.9705
same,"Anisotropy data 485,520,520","MN551 94.8645 nM, Cycle 6 (25 min)",273.7 and 266.4 and 265.9
same,Anisotropy,[3],274 and 273.4 and 270.5
same,Fb,[3],0.9646 and 0.9885 and 0.9568
same,"Anisotropy normalised (0 nM MN551 = 1, free probe = 0)","MN551 94.8645 nM, Cycle 19 (90 min), n=1",0.9933 and 1.003 and 0.9475
same,"Anisotropy normalised (0 nM MN551 = 1, free probe = 0)","MN551 94.8645 nM, Cycle 20 (95 min), n=1",0.9691 and 0.9574 and 0.9304
same,Anisotropy based on Raw Data (485),MN551 97.6562 nM,278.3 and 282.9 and 277.5
same,"Fb, fraction bound","MN551 97.6562 nM, Cycle 2 (5 min)",1.002 and 1.056 and 1.014
same,Anisotropy,"MN551 97.6562 nM, Cycle 11 (50 min)",278.8 and 281.3 and 277
same,Anisotropy,"MN551 97.6562 nM, Cycle 12 (55 min)",279.1 and 279.7 and 276.5
same,"Anisotropy data 485,520,520","MN551 97.6562 nM, Cycle 18 (85 min), n=1",274.3 and 275.7 and 270.8
same,Anisotropy based on Raw Data (485),MN551 132.81 nM,277.4 and 277.3 and 272.7
same,"Normalised anisotropy (0 nM MN551 = 1, free probe = 0)","MN551 132.81 nM, Cycle 13 (60 min), n=1",0.9411 and 0.9327 and 0.945
same,"Normalised anisotropy (0 nM MN551 = 1, free probe = 0)","MN551 132.81 nM, Cycle 14 (65 min), n=1",0.9679 and 0.9614 and 0.9597
same,"Normalised anisotropy (0 nM MN551 = 1, free probe = 0)","MN551 132.81 nM, Cycle 15 (70 min), n=1",0.9669 and 0.9677 and 0.9327
same,"Fb, fraction bound","MN551 132.81 nM, Cycle 2 (5 min)",1.001 and 1.004 and 1.003
same,"Fb, fraction bound","MN551 132.81 nM, Cycle 3 (10 min)",0.9889 and 1.004 and 0.9829
same,"Anisotropy data 485,520,520",[4],272.9 and 266.7 and 268.7
same,Fb,[4],1.0105 and 1.013 and 1.036
same,Anisotropy,[5],272.8 and 270.5 and 270
same,Fb,[5],0.9534 and 0.9607 and 0.952
same,"Anisotropy normalised (0 nM MN551 = 1, free probe = 0)","MN551 132.81 nM, Cycle 19 (90 min), n=1",0.9528 and 0.958 and 0.9524
same,"Anisotropy normalised (0 nM MN551 = 1, free probe = 0)","MN551 132.81 nM, Cycle 20 (95 min), n=1",0.9516 and 0.9273 and 0.9285
same,Anisotropy based on Raw Data (485),MN551 185.934 nM,278.1 and 275.4 and 274.1
same,"Normalised anisotropy (0 nM MN551 = 1, free probe = 0)","MN551 185.934 nM, Cycle 13 (60 min), n=1",0.927 and 0.9051 and 0.9324
same,"Normalised anisotropy (0 nM MN551 = 1, free probe = 0)","MN551 185.934 nM, Cycle 14 (65 min), n=1",0.9406 and 0.935 and 0.929
same,"Normalised anisotropy (0 nM MN551 = 1, free probe = 0)","MN551 185.934 nM, Cycle 15 (70 min), n=1",0.9561 and 0.9184 and 0.9202
same,"Fb, fraction bound","MN551 185.934 nM, Cycle 3 (10 min)",0.9759 and 0.9879 and 0.9619
same,"Anisotropy data 485,520,520",[6],271.2 and 265.9 and 264.5
same,Fb,[6],1.005 and 0.998 and 1.018
same,Anisotropy,[7],270.4 and 269.3 and 268.1
same,Fb,[7],0.931 and 0.9492 and 0.9338
same,"Anisotropy normalised (0 nM MN551 = 1, free probe = 0)","MN551 185.934 nM, Cycle 19 (90 min), n=1",0.9172 and 0.936 and 0.9397
same,"Anisotropy normalised (0 nM MN551 = 1, free probe = 0)","MN551 185.934 nM, Cycle 20 (95 min), n=1",0.9014 and 0.9041 and 0.8899
same,Anisotropy based on Raw Data (485),MN551 195.312 nM,281 and 276.5 and 273
same,"Fb, fraction bound","MN551 195.312 nM, Cycle 2 (5 min)",0.9639 and 1.006 and 1.008
same,Anisotropy,"MN551 195.312 nM, Cycle 12 (55 min)",272.9 and 273.5 and 273
same,Anisotropy based on Raw Data (485),MN551 260.308 nM,270.2 and 268.2 and 264.5
same,"Normalised anisotropy (0 nM MN551 = 1, free probe = 0)","MN551 260.308 nM, Cycle 13 (60 min), n=1",0.8241 and 0.8101 and 0.8658
same,"Normalised anisotropy (0 nM MN551 = 1, free probe = 0)","MN551 260.308 nM, Cycle 14 (65 min), n=1",0.8651 and 0.8427 and 0.8474
same,"Normalised anisotropy (0 nM MN551 = 1, free probe = 0)","MN551 260.308 nM, Cycle 15 (70 min), n=1",0.8655 and 0.8321 and 0.8452
same,"Fb, fraction bound","MN551 260.308 nM, Cycle 3 (10 min)",0.9027 and 0.9023 and 0.8716
same,"Anisotropy data 485,520,520","MN551 260.308 nM, Cycle 6 (25 min)",268.3 and 257.5 and 257.9
